The numbers were not newly measured in patent US9371263B2, “Protective effects of curcumin against hemorrhagic stroke injury” (Augusta University Research Institute, Inc., priority 2013, dated 2016), which cites them from elsewhere.

For this series the following is noted: humans, oral administration.

Turning to `COc1cc(/C=C/C(=O)CC(=O)/C=C/c2ccc(O)c(OC)c2)ccc1O` [curcumin, diferuloylmethane], the systemic bioavailability entry is “relatively low”.
